According to US20160081938A1, “ACAMPROSATE FORMULATIONS, METHODS OF USING THE SAME, AND COMBINATIONS COMPRISING THE SAME” (Synchroneuron Inc., priority 2013, published 2016):

Key:
[1] = high solubility and low permeability; cited from earlier work
[2] = Simulated sustained release in a dog model; type: in vivo; details: sustained presentation over eight hours
Method: It has been discovered that the shape of the PK curve and not just the AUC can make a difference to efficacy. Specifically, having a plasma concentration above a threshold for several hours per day (e.g., 4-8 hours) may be more efficacious than maintaining a concentration just below that threshold for 24 hours a day. […] In this model, the drug conserved by avoiding a high single dose and high Cmax was distributed across several hours, giving a several hour period in which the plasma concentration of acamprosate was higher than the plasma concentration after administration of a single dose of the immediate release version.
In a dog study of simulated sustained release of acamprosate it was shown that through sustained release a higher residence time above a threshold can be attained than by giving the same dose all at once. Combining the results from the dog study with the implications of the reported human cases we contemplate that acamprosate delivered by a sustained release system can relieve symptoms of TD and other neuropsychiatric disorders given once or twice a day. […] Thus it appears that a total daily dose of less than one gram of sustained release acamprosate, given on a twice a day basis, or perhaps even on a once a day basis, could be adequate to treat TD in the case examples. […]

For `CC(=O)NCCCS(=O)(=O)O` [Acamprosate, 3-(acetylamino)-1-propanesulfonic acid], the “Biopharmaceuticals Classification System (BCS) class” value [1] is listed as “Class III” and the “residence time above a threshold concentration vs immediate release of the same dosage” value [2] is listed as “significantly longer residence time”.
